Patent US7531671B2, “Dihydroisoindolones as allosteric modulators of glucokinase” (Janssen Pharmaceutica N.V., priority 2005, dated 2009)
“And” between values parts separate entries of the source, which are not always exact repeats. Identical values can stand only once.

Target: T1, human pancreas Glucokinase (GK) (Homo sapiens, UniProt P35557)
T1 construct: (His)6; made in house; host or cells: Escherichia coli
T1 sequence (P35557 1-465): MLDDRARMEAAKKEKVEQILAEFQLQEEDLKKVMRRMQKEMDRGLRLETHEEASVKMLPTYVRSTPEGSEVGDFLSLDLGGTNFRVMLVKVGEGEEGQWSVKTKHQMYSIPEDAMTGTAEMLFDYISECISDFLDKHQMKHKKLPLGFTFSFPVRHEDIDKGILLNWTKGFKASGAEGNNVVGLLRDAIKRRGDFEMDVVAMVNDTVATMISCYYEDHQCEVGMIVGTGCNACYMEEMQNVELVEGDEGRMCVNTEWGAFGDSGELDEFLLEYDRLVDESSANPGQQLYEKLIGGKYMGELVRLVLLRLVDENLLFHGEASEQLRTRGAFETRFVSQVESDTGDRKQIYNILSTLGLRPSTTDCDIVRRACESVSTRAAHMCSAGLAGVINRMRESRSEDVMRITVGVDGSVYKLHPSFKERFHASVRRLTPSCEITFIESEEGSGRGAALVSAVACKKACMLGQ
Test: Glucokinase enzyme assay, Pancreas GK data
Format: biochemical
Conditions: for activation at 50 µM: compound 50 μM, percentage increase in GK activity above vehicle control, 12 mM glucose; for EC50: concentration producing 50% activation above vehicle control; for EC100%: concentration producing 100% activation above vehicle control
Excerpt: An enzymatic Glucokinase (GK) assay using purified recombinant human liver/pancreas enzyme was used to evaluate the effects of potential small molecule modulators.
In this assay, GK catalyzes glucose phosphorylation in the presence of ATP. The product of this reaction, glucose-6-phosphate, was then oxidized by an excess of glucose-6-phosphate dehydrogenase to produce gluconate-6-phosphate with concomitant reduction of nicotinamide adenine dinucleotide (NAD). […] Human GK (Liver/Pancreas) was expressed in Escherichia coli as a (His) 6-tagged fusion protein and was purified by metal chelate affinity chromatography. The assay was performed in a final incubation volume of 80 μl in a 96-well clear low UV absorption plates. The incubation mixture consisted of 25 mM HEPES, 2 mM MgSO4, 1 mM dithiothreotol (DTT), 1 mg/ml bovine serum albumin (BSA), 1 mM ATP, 1 mM NAD, and 12 mM glucose, 10 units per ml glucose-6-phosphate dehydrogenase, and +/−300 ng per ml GK. For determination of the affinity (Km) and Vmax, different concentrations of glucose ranging from 0.5 mM to 40 mM were used in the assay; see Grimsby, J., Sarabu, R.; Grippo, J. F.; et. al. Science 2003, 301, 370-373. Production of reduced NAD (Nicotinamide Adenine Dinucleotide) was measured as changes in absorption at 340 nm in 96-well plate reader (Envision model # 2101 Multilabel Plate reader). % Activation @ 50 μM was calculated as the percentage increase in GK activity above the vehicle control with the effective concentration of the compound being 50 μM. EC50% (μM) was calculated as the effective concentration of the compound that produces 50% activation above the vehicle control, and EC100% (μM) was calculated as the effective concentration of the compound that produces 100% activation above the vehicle control.

Row | SMILES | activation at 50 µM [%] | EC50 | EC100%
1 | O=C(CSC1c2ccccc2C(=O)N1Cc1ccc2c(c1)OCCO2)Nc1ccccn1 (stereo not shown) [Compound 38, 2-[2-(2,3-Dihydro-benzo[1,4]dioxin-6-ylmethyl)-3-oxo-2,3-dihydro-1H-isoindol-1-ylsulfanyl]-N-pyridin-2-yl-acetamide] | 201 | 1 µM | 3.8 µM
2 | COc1cc(CN2C(=O)c3ccccc3C2SCC(=O)Nc2ccccn2)cc(OC)c1OC (stereo not shown) [Compound 39, 2-[3-Oxo-2-(3,4,5-trimethoxy-benzyl)-2,3-dihydro-1H-isoindol-1-ylsulfanyl]-N-pyridin-2-yl-acetamide] | 193 | 1.4 µM | 5.3 µM
3 | O=C(CSC1c2ccccc2C(=O)N1Cc1ccc(N2CCCC2=O)cc1)Nc1ccccn1 (stereo not shown) [Compound 40, 2-{3-Oxo-2-[4-(2-oxo-pyrrolidin-1-yl)-benzyl]-2,3-dihydro-1H-isoindol-1-ylsulfanyl}-N-pyridin-2-yl-acetamide] | 109 | 2.1 µM | 16.1 µM
4 | O=C(CSC1c2ccccc2C(=O)N1Cc1ccc2c(c1)OCO2)Nc1ccccn1 (stereo not shown) [Compound 41, 2-(2-Benzo[1,3]dioxol-5-ylmethyl-3-oxo-2,3-dihydro-1H-isoindol-1-ylsulfanyl)-N-pyridin-2-yl-acetamide] | 152 | 2.8 µM | 10 µM
5 | COc1ccc(CN2C(=O)c3ccccc3C2SCC(=O)Nc2ccccn2)cc1OC (stereo not shown) [Compound 42, 2-[2-(3,4-Dimethoxybenzyl)-3-oxo-2,3-dihydro-1H-isoindol-1-ylsulfanyl]-N-pyridin-2-yl-acetamide] | – | 0.54 µM and 0.78 µM | 1.6 µM and 2.4 µM
6 | O=C(CSC1c2ccccc2C(=O)N1Cc1cccc2ccccc12)Nc1ccccn1 (stereo not shown) [Compound 43, 2-(2-Naphthalen-1-ylmethyl-3-oxo-2,3-dihydro-1H-isoindol-1-ylsulfanyl)-N-pyridin-2-yl-acetamide] | 112 | 4 µM | 7.1 µM
7 | O=C(CSC1c2ccccc2C(=O)N1Cc1ccc2sccc2c1)Nc1ccccn1 (stereo not shown) [Compound 44, 2-(2-Benzo[b]thiophen-5-ylmethyl-3-oxo-2,3-dihydro-1H-isoindol-1-ylsulfanyl)-N-pyridin-2-yl-acetamide] | 116 | 0.89 µM | 5.9 µM
8 | Cc1[nH]c2ccc(CN3C(=O)c4ccccc4C3SCC(=O)Nc3ccccn3)cc2c1C (stereo not shown) [Compound 45, 2-[2-(2,3-Dimethyl-1H-indol-5-ylmethyl)-3-oxo-2,3-dihydro-1H-isoindol-1-ylsulfanyl]-N-pyridin-2-yl-acetamide] | 132 | 0.38 µM | 2 µM
9 | O=C(CSC1c2ccccc2C(=O)N1Cc1ccc(-n2cccc2)cc1)Nc1ccccn1 (stereo not shown) [Compound 46, 2-[3-Oxo-2-(4-pyrrol-1-yl-benzyl)-2,3-dihydro-1H-isoindol-1-ylsulfanyl]-N-pyridin-2-yl-acetamide] | 106 | 0.8 µM | 4.8 µM
10 | O=C(CSC1c2ccccc2C(=O)N1Cc1ccc(-n2cccn2)cc1)Nc1ccccn1 (stereo not shown) [Compound 47, 2-[3-Oxo-2-(4-pyrazol-1-yl-benzyl)-2,3-dihydro-1H-isoindol-1-ylsulfanyl]-N-pyridin-2-yl-acetamide] | 106 | 0.8 µM | –
11 | O=C(CSC1c2ccccc2C(=O)N1Cc1ccc(OC(F)(F)F)cc1)Nc1ccccn1 (stereo not shown) [Compound 48, 2-[3-Oxo-2-(4-trifluoromethoxybenzyl)-2,3-dihydro-1H-isoindol-1-ylsulfanyl]-N-pyridin-2-yl-acetamide] | 174 | 1.6 µM | 6.9 µM
12 | COc1ccc(CN2C(=O)c3ccccc3C2SCC(=O)Nc2ccccn2)cc1 (stereo not shown) [Compound 49, 2-[2-(4-Methoxybenzyl)-3-oxo-2,3-dihydro-1H-isoindol-1-ylsulfanyl]-N-pyridin-2-yl-acetamide] | 250 | 0.21 µM | 0.86 µM
13 | CN(C)c1ccc(CN2C(=O)c3cccc(F)c3C2SCC(=O)Nc2ccccn2)cc1 (stereo not shown) [Compound 51, 2-[2-(4-Dimethylaminobenzyl)-7-fluoro-3-oxo-2,3-dihydro-1H-isoindol-1-ylsulfanyl]-N-pyridin-2-yl-acetamide] | 161 | 0.36 µM | 1.7 µM
14 | COc1ccc(CN2C(=O)c3cccc(F)c3C2SCC(=O)Nc2ccccn2)cc1OC (stereo not shown) [Compound 52, 2-[2-(3,4-Dimethoxybenzyl)-7-fluoro-3-oxo-2,3-dihydro-1H-isoindol-1-ylsulfanyl]-N-pyridin-2-yl-acetamide] | – | – | 0.056 µM and 0.066 µM
15 | CCCCN1C(=O)c2ccccc2C1OCC(=O)Nc1nccs1 (stereo not shown) [Compound 53, 2-(2-Butyl-3-oxo-2,3-dihydro-1H-isoindol-1-yloxy)-N-thiazol-2-yl-acetamide] | 101 | 18.3 µM | –

Continued, values first:

Row | activation at 50 µM [%] | EC50 | EC100% | SMILES
16 | 358 | 1.1 µM | 6.1 µM | O=C(CSC1c2ccccc2C(=O)N1Cc1ccc(F)cc1)Nc1ccc(C(=O)O)cn1 (stereo not shown) [Compound 54, 6-{2-[2-(4-Fluorobenzyl)-3-oxo-2,3-dihydro-1H-isoindol-1-ylsulfanyl]-acetylamino}-nicotinic acid]
17 | 246 | 1.35 µM | 3.4 µM | COc1ccc(CN2C(=O)c3ccccc3C2SCC(=O)Nc2ccc(C(=O)O)cn2)cc1 (stereo not shown) [Compound 55, 6-{2-[2-(4-Methoxybenzyl)-3-oxo-2,3-dihydro-1H-isoindol-1-ylsulfanyl]-acetylamino}-nicotinic acid]
18 | 219 | 0.85 µM | 2.7 µM | COc1ccc(CN2C(=O)c3ccccc3C2SCC(=O)Nc2ccc(C(=O)O)cn2)cc1OC (stereo not shown) [Compound 56, 6-{2-[2-(3,4-Dimethoxybenzyl)-3-oxo-2,3-dihydro-1H-isoindol-1-ylsulfanyl]-acetylamino}-nicotinic acid]
19 | 258 | 0.13 µM | 0.4 µM | COc1ccc(CN2C(=O)c3c(F)ccc(F)c3C2SCC(=O)Nc2ccc(C(=O)O)cn2)cc1OC (stereo not shown) [Compound 57, 6-{2-[2-(3,4-Dimethoxybenzyl)-4,7-difluoro-3-oxo-2,3-dihydro-1H-isoindol-1-ylsulfanyl]-acetylamino}-nicotinic acid]
20 | 70 | 27 µM | – | Cc1ccc2c(c1)C(OCC(=O)Nc1cnccn1)N(Cc1ccccc1)C2=O (stereo not shown) [Compound 58, 2-(2-Benzyl-6-methyl-3-oxo-2,3-dihydro-1H-isoindol-1-yloxy)-N-pyrazin-2-yl-acetamide]
21 | 127 | 3.3 µM | 20.58 µM | COC(=O)c1ccc(NC(=O)COC2c3cc(C)ccc3C(=O)N2Cc2ccccc2)nc1 (stereo not shown) [Compound 59]
22 | 102 | 7.6 µM | – | Cc1ccc2c(c1)C(OCC(=O)Nc1nccs1)N(Cc1ccccc1)C2=O (stereo not shown) [Compound 60, 2-(2-Benzyl-6-methyl-3-oxo-2,3-dihydro-1H-isoindol-1-yloxy)-N-thiazol-2-yl-acetamide]
23 | 8.4 | 26 µM | – | Cc1ccc2c(c1)C(OCC(=O)Nc1ccccn1)N(Cc1ccccc1)C2=O (stereo not shown) [Compound 61, 2-(2-Benzyl-6-methyl-3-oxo-2,3-dihydro-1H-isoindol-1-yloxy)-N-pyridin-2-yl-acetamide]
